PMC10974995 (Pathogens, 2024)
≈ marks a conversion by molar mass, not a printed value. Read-outs that look alike come from different tables or passages of the source.

How the values were obtained:
[1] = system: boar sperm
[2] = system: PK-15 (porcine kidney epithelial cells) and/or FFL (feline fetus lung cells)
[3] = system: differentiated PK-15 cells
[4] = system: boar sperm; assay: cells
[5] = system: PK-15 (porcine kidney epithelial cells) and/or FFL (feline fetus lung cells); assay: cells; details: Sus scrofa
[6] = system: differentiated PK-15 cells; assay: cells; details: Sus scrofa, PK-15, read-out: Mitochondrial Toxicity 1d (EC50, acceleration of glycolysis and depolarization of mitochondria)
[7] = system: Fish; details: cited from earlier work
[8] = system: Rat; details: po; cited from earlier work
[9] = system: boar sperm; details: cited from earlier work
[10] = system: rodents; details: in vivo; cited from earlier work
[11] = system: boar sperm and PK-15 cells
[12] = 72 h, read-out: EC50 Ex Vivo BSMI 1–3d
[13] = PK-15, 48 h, read-out: EC50 In Vitro ICP 2d

Row | Molecule | Ex Vivo BSMI 1–3d, toxic (+) / nontoxic (−), xenobiotic chemicals ([1]; pig (boar)) | In Vitro ICP 2d, toxic (+) / nontoxic (−), xenobiotic chemicals [2] | Mitochondrial toxicity after testing with somatic cells [3] | EC50 [4, 12] [µg/mL] | EC50 [5, 13] [µg/mL] | EC50 [6] [µg/mL] | In Vivo (toxicity to experimental animals), xenobiotic chemicals [7] | Toxicity In Vivo LD50 Fish [7] [mg/L] | Toxicity In Vivo LD50 Rat p.o. [8] [mg/kg] | Toxicity profile of pure toxins and chemicals in the BSMI and ICP assays [11] | In Vitro ICP 2d, toxic (+) / nontoxic (−), microbial metabolites [2] | In Vivo (toxicity to experimental animals), mycotoxins and fungal metabolites [8] | also measured
1 | Oc1cc(Cl)ccc1Oc1ccc(Cl)cc1Cl [Triclosan, Triclorooxy-phenylether] | (+) 1 (key: (+): For the xenobiotic chemicals, EC50 values < 10 µg mL^−1 and <20 µg mL^−1 were considered as toxic in the BSMI assay and in the ICP assay, respectively; nontoxic as (−)) | 20 (−) | Mitochondrial toxicity was recorded | 1 (≈ 3.45 µM) | 20 (≈ 69.1 µM) | 5 (≈ 17.3 µM) | + (key: LD50 Fish Inhaled <10 μg mL ^–1 = Toxic in vivo Marked as +.) | 0.5 | 3700 |  |  |  | Sperm motility relative to the negative control [1]: < 20%; EC50 ([4]; read-out: EC50 Ex Vivo BSMI, positive controls, mean of 10 or 11 measurements): 1 µg/mL (≈ 3.45 µM); EC50 ([5]; PK-15, read-out: EC50 In Vitro ICP, positive controls, mean of 10 or 11 measurements): 13 µg/mL (≈ 44.9 µM)
2 | CC(C)C[C@H]1OC(=O)[C@H](C(C)C)NC(=O)[C@H](C(C)C)OC(=O)[C@@H](C)NC(=O)[C@@H](CC(C)C)OC(=O)[C@H](C(C)C)NC(=O)[C@H](C(C)C)OC(=O)[C@@H](C)NC(=O)[C@@H](CC(C)C)OC(=O)[C@H](C(C)C)NC(=O)[C@H](C(C)C)OC(=O)[C@@H](C)NC1=O [Cereulide] |  |  |  |  |  |  |  |  |  |  |  |  | Toxicity in sperm motility tests [9]: toxic; Toxicity to rodents [10]: non-toxic
3 | CCCCCCCCCC[N+](C)(C)CCCCCCCCCC [DDAC, Didecyl- dimethyl- ammonium- chloride] | (+) 1 (key: (+): For the xenobiotic chemicals, EC50 values < 10 µg mL^−1 and <20 µg mL^−1 were considered as toxic in the BSMI assay and in the ICP assay, respectively; nontoxic as (−)) | (+) 0.5 (key: (+): For the xenobiotic chemicals, EC50 values < 10 µg mL^−1 and <20 µg mL^−1 were considered as toxic in the BSMI assay and in the ICP assay, respectively; nontoxic as (−)) | Mitochondrial toxicity was recorded | 1 | 0.5 | 1 | + (key: LD50 Fish Inhaled <10 μg mL ^–1 = Toxic in vivo Marked as +.) | 0.5 | 238 | highly toxic in both assays |  |  | 
4 | Alamethicin |  |  |  |  |  |  |  |  | 80 | toxic in both the BSMI and ICP tests | (+) 6 (key: (+): For the microbial metabolites, EC50 < 5 µg mL^−1 and <10 µg mL^−1 were considered as toxic in the BSMI and ICP assays, respectively; nontoxic as (−)) | + (key: LD50 rat p.o. <1000 mg kg ^–1 Classified as Toxic in vivo +.) | EC50 Ex Vivo BSMI 1–3d [1]: (+) 0.5 μg mL^–1; Ex Vivo BSMI 1–3d, toxic (+) / nontoxic (−), microbial metabolites [1]: (+) 0.5 (key: (+): For the microbial metabolites, EC50 < 5 µg mL^−1 and <10 µg mL^−1 were considered as toxic in the BSMI and ICP assays, respectively; nontoxic as (−)); EC50 In Vitro ICP 2d [2]: (+) 6 μg mL^–1
5 | C[C@@H]1Cc2c(Cl)cc(C(=O)N[C@@H](Cc3ccccc3)C(=O)O)c(O)c2C(=O)O1 [Ochratoxin A] |  |  |  | > 50 | > 50 |  |  |  | 20 | not detected in our assays | (−) >50 | + (key: LD50 rat p.o. <1000 mg kg ^–1 Classified as Toxic in vivo +.) | Ex Vivo BSMI 1–3d, toxic (+) / nontoxic (−), microbial metabolites ([1]; pig (boar)): (−) >50
